Data: patent US20230106943A1, “ENGINEERED ANTIMICROBIAL PEPTIDES AND USAGE THEREOF” (Peptilogics, Inc., priority 2021, published 2023)
No end group written: not given here.

Experiment: Stability of 5 mg/mL SEQ ID NO: 1 solution pH 5.0 stored at 40° C. or −20° C. (content, pH, HPLC area %)
Format: physicochemical

RRWVRRVRRVWRRVVRVVRRWVRR-NH2 [SEQ ID NO: 1]
Solution pH (7 days/−20° C.): 4.95
Main peak SEQ ID NO: 1 area % (14 days/−20° C.): 95.4%
SEQ ID NO: 1 content (54 days/−20° C.): 5.09 mg/mL
Solution pH (54 days/−20° C.): 4.95
